1 molecule from patent publication US20080111109A1, “ORGANIC-ELECTROLUMINESCENCE-MATERIAL-CONTAINING SOLUTION, METHOD FOR FORMING THIN FILM OF ORGANIC ELECTROLUMINESCENCE MATERIAL, THIN FILM OF ORGANIC ELECTROLUMINESCENCE MATERIAL AND ORGANIC ELECTROLUMINESCENCE DEVICE” (Idemitsu Kosan Co., Ltd., priority 2006, published 2008) can be followed below.

This data set can be described thus: Solubility in the solvent of a naphthacene compound with para-bonded aromatic substituents. The class given is physicochemical. The following applies: solvent not specified (aromatic, halogen type or ether type solvent).

On to `c1ccc(-c2ccc(-c3c4ccccc4c(-c4ccc(-c5ccccc5)cc4-c4ccccc4)c4cc5ccccc5cc34)c(-c3ccccc3)c2)cc1`, for which the solubility is given as at most 0.1 wt %.
